# Test results reported in publication PMC10597491 (PLOS ONE, 2023).
# pEC50: −log10 of the molar value. Bridge positions count the residues as written; N and C are the ends. Ends that are not written are not given here.
# Tests used:
# cynomolgus monkey PBMCs = assay: pSTAT5 flow cytometry in cynomolgus PBMC subsets; assay type: cell-based, cynomolgus macaque; settings: rested cynomolgus PBMCs
# Description: Frozen PBMCs from 5 healthy human donors (A, B) and cynomolgus monkey (C) were rested (A, C) or activated with anti-CD3/CD28 (B). Cells were stained for viability, followed by cell surface antibody staining on ice. […] After washing, cells were fixed, permeabilized, stained with anti-pSTAT5 antibody, and analyzed immediately by flow cytometry. The mean fluorescence intensity (MFI) of pSTAT5 detection was shown as mean ± SEM. […] Flow cytometry gating data shown in S2 Fig.
# To detect phopho-STAT5 in immune subsets of PBMCs by flow cytometry, frozen human and cynomolgus macaques PBMCs (Stemcell Technologies, Cat# 70025.2 and iQ Biosciences, Cat# IQB-MnPB102, respectively) from 5 different healthy donors were thawed and rested overnight in T-cell media (CTS™ OpTmizer™ T-Cell Expansion SFM, ThermoFisher Scientific Cat# A1048501) at 37°C. Cells were stained with a viability dye for 30 min at 37°C followed by surface marker antibodies for 30 min on ice (S3 Table), then treated with serially diluted test compounds in the medium for 30 min. […] Antibody-stained cells were analyzed immediately by flow cytometry using the Novocyte Advanteon instrument (Agilent), and the data were analyzed using FlowJo software. Fluorescence minus one (FMO) controls were used to draw gates. […]
# human naive CD8+ T-cells = assay: pSTAT5 ELISA in isolated naive CD8+ T-cells; assay type: cell-based; settings: for pEC50: rested naive CD8+ T-cells, 15 min exposure, pSTAT5 ELISA
# Procedure: (§1) We first assessed induction kinetics over a time course of compound exposure. Saturating concentrations of each of the compounds, previously determined to elicit maximum response of pSTAT5 signaling, were applied to the cells and pSTAT5 levels monitored for up to 2 hours. The resulting time-response profiles served to compare the kinetics of signal induction for the different compounds, and to determine Tmax for correct time of exposure in subsequent dose response determinations for each compound. In these studies, IL-7-induced pSTAT5 accumulation rose rapidly to a maximum by 15 to 30 minutes, then declined slowly for the remainder of the time course.
# (§2) Naive CD4+ and CD8+ T-cells, were separately isolated by negative selection from PBMCs, and rested overnight prior to compound exposure.
# (§3) For preparation of lymphocyte subsets, naïve CD4+ T-cells were isolated via two-stage negative selection with EasySep™ Human Naïve CD4+ T-Cell Isolation Kit II (Stemcell Technologies Cat# 17555); and CD8+ T-cells were isolated by negative selection from PBMCs with Stem Cell Technology Easy Sep CD8+ kit, or obtained freshly prepared from Stanford Blood Center. Rested naïve CD4+ T-cells or CD8+ T-cells were prepared by overnight incubation at 37°C, 5% CO2 in CTS™ OpTmizer™ T-Cell Expansion SFM (ThermoFisher Scientific Cat# A1048501).
# (§4) Cells were deprived of growth factors by overnight incubation at 5×10^5 cells/mL in starvation medium (RPMI 1640 + 4.5 g/L glucose + 0.2% FBS + 2 mM L-glutamine + 1 mM NaPyr + 10 mM HEPES + 0.5x penicillin-streptomycin with no cytokine supplement) in T75 flasks. For assays, cells were plated in 96-well V-bottom plates at 2×10^5 cells/well. […] Following incubation, cell extracts were prepared by adding a mixture of 10x Cell Lysis Buffer (Cell Signaling Technology Cat# 9803) and 100x HALT Phosphatase and Protease Inhibitor Cocktail (Thermo Fisher Cat# 78442) directly to the wells. The plates were agitated at 25°C for 5 min to prepare cell extracts for immediate use or to be stored at -80°C until assay. […]
# [1] = test system: rested human CD8+ T-cells; assay: IL-7Rα (CD127) internalization assay; assay type: cell-based
# Procedure: In previous studies, the decline of IL-7Rα on the surface of IL-7-treated CD8+ cells was reported to proceed with approximately linear kinetics, reaching ~80% disappearance of receptor over 6 hours at 37°C [49]. […] Surface IL-7R was pre-loaded with saturating concentrations of the agonists on ice and shifted to 37°C to allow internalization, then shifted back to ice to stop internalization. […] A parallel assay with all incubations held on ice for the duration of the time course was also run.
# Fig 8 Test compounds induce decrease in cell surface IL-7Rα. […] Following timed incubations, the samples were stained, fixed, and analyzed by flow cytometry; and data was collected as median fluorescence intensity (MFI), as detailed in Methods. […] The primary flow data (MFI) is shown in S3 Fig.
# CD8+ cells isolated by negative selection from PBMCs with Stem Cell Technology Easy Sep CD8+ kit, or obtained freshly prepared from Stanford Blood Center, were rested overnight in RPMI 1640 containing Pen/Strep, L-Glutamine and 20% FBS; then resuspended to 7.0 x10^6 cells/mL. […] To determine levels of cell surface IL-7Rα, analysis was performed by flow cytometry to determine median fluorescence intensity (MFI) of cells at each condition. […]
# human naive CD4+ T-cells = assay: pSTAT5 ELISA in isolated naive CD4+ T-cells; assay type: cell-based; settings: for pEC50: rested naive CD4+ T-cells, 15 min exposure, pSTAT5 ELISA
# Procedure: as §1, §2, §3, §4
Substance,efficacy in cynomolgus lymphocyte subtypes (cynomolgus monkey PBMCs),pEC50 (human naive CD8+ T-cells),"loss of IL-7Rα surface density ([1]; 6 hours at 37°C, 10 nM IL-7) [%]",pEC50 (human naive CD4+ T-cells),"agonist efficacy, CD8+ (human naive CD8+ T-cells; dose response at 15 min)","rate of surface decline of IL-7Rα ([1]; 1 μM, 37°C)","agonist efficacy, CD4+ (human naive CD4+ T-cells; dose response at 15 min)"
IL-7: human IL-7 cytokine (Peprotech),equivalent efficacy,11.55,60,11.60,,,
"Ac-GWGIPWCTLDPGSLQCAWLGKHGGGGSGGVVCQDWEGVELCWQGG (disulfide 7-16, 32-41) [MDK1472]",,9.46,,8.89,full agonists,tracked very closely with that induced by IL-7,full agonists
